Earlier results on 3 molecules are cited in patent publication US11154501B2, “Method of enhancing the efficacy and stability of ingredients in suspensions” (Nanophase Technologies Corporation, priority 2019, dated 2021).

The conditions of this series: for solubility limit: in water at 25° C.

As to `O.O.O=c1c(O)c(-c2ccc(O)c(O)c2)oc2cc(O)cc(O)c12` [quercetin dihydrate], where the note is “in neutral water”, the “solubility (in words)” value was “very poorly soluble”.

Turning to `C[C@@H]1O[C@@H](OC[C@H]2O[C@@H](Oc3c(-c4ccc(O)c(O)c4)oc4cc(O)cc(O)c4c3=O)[C@H](O)[C@@H](O)[C@@H]2O)[C@H](O)[C@H](O)[C@H]1O` [rutin], the solubility limit was 0.013%.

On to `NC(=O)NC1NC(=O)NC1=O` (stereo not drawn) [allantoin, (2,5-dioxo-4-imidazolidinyl) urea, reference compound], for which the solubility limit is reported as 0.5%.
